Data as given in patent US10101322B2, “Photoactivated chemical bleaching of dyes using borates” (GENERAL ELECTRIC COMPANY, priority 2015, dated 2018).
“Also recorded” adds a separate entry of the source.

How the values were obtained:
[1] = Eosin Y bleaching with borates in ethanol; conditions: 1 mM borate, 2 min irradiation, 100 W halogen lamp
Method: To a 2 mL solution of Eosin in ethanol (2.5×10^-5M solution), 2 mL of 1 mM of anionic borate (MBB), a neutral borate a, (Formula I) or a neutral borate b (Formula I) were added and the solution was irradiated for 1-2 minutes using 100 W halogen lamp. Absorbance at λmax of dye was measured to monitor photobleaching, and the results were plotted, as is shown in the bar graph plot of FIG. 7.

[2] = Stability of solid borate on exposure to air (1H NMR, colour)
[3] = Eosin Y bleaching with borates in water; conditions: aqueous solution; in Example 2A 0.5 mM borate, 1 minute, 100 W halogen lamp
Method: To a 2 mL solution of Eosin in water (2.26×10^-5M solution), 2 mL of 0.5 mM of cationic Borate (e′), Cationic Borate (f′) or anionic borate (MBB) were added, and the solution was irradiated for 1 minute using 100 W halogen lamp. […] FIG. 6 is a bar graph comparing bleaching kinetics of eosin by different borates MBB (a), e′ (b), and f′ (c).

[4] = Cy3 dye bleaching with borates in ethanol; conditions: 1 mM borate, 1 minute, 100 W halogen lamp, absorbance at 552 nm
Method: To a 2 mL solution of previously hydrolyzed Cy3 bisreactive dye (GE Healthcare) in ethanol (2.5×10^-5M solution), 2 mL of 1 mM solution of one of the following borates: anionic borate (MBB), neutral borate, a or b (Formula I), and cationic borates e′ or f′ in ethanol was added. Samples were irradiated for 1 minute using 100 W halogen lamp. The decrease in Cy3 absorbance at 552 nm was measured to monitor photobleaching, and the results were plotted, as is shown in FIG. 8. The bar graph compares the bleaching kinetics of Cy3 by different borates in ethanol.

[5] = Cy3 bleaching with borates in water; conditions: aqueous solution; in Example 2D 0.5 mM borate, 100 W halogen lamp, absorbance at 552 nm
Method: To a 2 mL solution of previously hydrolyzed Cy3 bis reactive dye in water (3.4×10^-5M solution), 2 mL of 0.5 mM solution of anionic borate (MBB), cationic borate (e′) or cationic borate (f′) were added and the solution was irradiated. […] FIG. 10 is a bar graph comparing bleaching kinetics of Cy3 by different borates.

[6] = test system: Her2/CEP17 DNA FISH signal; assay: DNA FISH signal bleaching and FISH on PICB bleached slides; parameters: species or system Human
Method: Slides were H&E stained and bleached as described above. Alternatively previously imaged and archived H&E slides were processed through the steps of decoverslipping, hydration, antigen retrieval, blocking and bleaching with f′ as described above for freshly stained H&E slides.
Slides were immersed in a pre-warmed 0.1% pepsin solution for 8 minutes then placed in room temperature PBS for 2 minutes. Samples were re-fixed in 4% formalin for 10 minutes then washed 2×5 minutes in PBS. Slides were dehydrated in ethanol series 50%, 70%, and 95%, 2 minutes each and allowed to dry on bench top for 10 minutes. Pre-mixed dual Her2/CEP17 probe was vortexed, spun, and added to samples. Samples were coverslipped and sealed with a rubber sealant per usual practice. After allowing rubber cement to cure for 10 minutes, probes were hybridized in Thermobrite cycler: 80° C. denaturation for 10 minutes followed by 37° C. incubation overnight. Rubber cement was removed and slides were decoverslipped in preheated 37° C. 2×SSC for 5 minutes. […] Slides were washed 2×2 minutes with 2×SSC, removed from buffer to dry, coverslipped with 4% DABCO in 90% glycerol/2×SSC, and imaged on an Olympus IX81 fluorescence microscope using a 40× objective with following exposure times: for DAPI (2 ms), spectrum green (CEP17-200 ms), and spectrum orange (Her2-400 ms). […]

[7] = Residual eosin bleaching (PICB) in H&E stained tissue sections; parameters: species or system Human; conditions: 0.15 mM f′, irradiation in presence of DABCO, three cycles
Method: Human breast tissue array samples were obtained as tissue slides embedded in paraffin from Clarient (Huntsville, Ala.). Slides were baked at 60° C. for 15 minutes and then washed with xylene (1×10 min) to remove paraffin.
All the slides were stained with hematoxylin and eosin and coverslipped following the standard procedures in the literature (IHC World LLC, Protocol Database, Hematoxylin and Eosin (H&E) Staining Protocol). After staining, the images were obtained as described below.
Bright field and Fluorescence images were taken for all the slides using Leica bright field microscope and Olympus IX81 fluorescence microscope (Olympus Co., Tokyo, Japan respectively. For fluorescence imaging the following excitation filters were used: eosin 500/40 nm, Cy3 550/40 nm and Cy5 650/40 nm.
After imaging, samples were decoverslipped by incubation in xylenes overnight and hydrated by washing in four solutions of ethanol with concentrations decreasing in the order of 100%, 95%, 70%, and 50% followed by a wash with 1× phosphate buffer saline (PBS, pH 7.4). After rehydration, the slides were washed with 1×PBS. A ten minute incubation in 0.3% Triton X-100 in PBS was performed for membrane permeabilization of the tissue, followed by a wash with 1×PBS.
Hydrated slides were treated with dual-buffer heat-induced epitope retrieval. […] Slides were imaged by brightfield and fluorescence microscopy. […]

[8] = Charge transfer complex formation between Eosin-Y and cationic borate (UV-Vis titration); assay type: physicochemical; conditions: without irradiation
Method: A 50 ul of 1 mM eosin solution in water was further diluted to 3 ml with water and to this was added 1 mM solution of f′ (Formula I) in water in 25 ul portions. UV-Vis spectrum was acquired after every 25 μL f′ addition.
This is believed to be due an electrostatic charge-transfer complex formulation between cationic borate: eosin-y complex.
This phenomenon may be attributed to formation of charge-transfer complex between anionic Eosin-Y and cationic Borate. The electrostatic charge transfer formation is responsible for quenching of Eosin-Y fluorescence.

SMILES	order of Eosin photobleaching kinetics [1]	time to evidence of decomposition ([2]; exposure to air)	colour change on exposure to air ([2]; white solid stored inertly)	Eosin-Y photobleaching compared to anionic borate (MBB) [3]	Cy3 bleaching kinetics [4]	Cy3 bleaching kinetics compared to anionic borate (MBB) [5]	bleaching of DNA FISH signal [6]	decomposition ([2]; after 2 months of exposure to air)	degradation by 1 HNMR ([2]; solid form, exposure to air for over 5 weeks)	bleaching of residual eosin signal in tissue [7]	bathochromic (red-shift) of the Eosin-Y peak ([8]; 1 mM f′ added in 25 ul portions to eosin in water)	colour change of eosin solution on borate addition ([8]; water)
c1ccc(C[B-](c2ccccc2)(c2ccccc2)c2ccccc2)cc1 [MBB, monobenzyltriphenyl borate, reference compound]	cationic>neutral>anionic	< 10 min	becoming yellow in color immediately on exposure to air									
C[N+](C)(C)c1ccc([B-](c2ccc([N+](C)(C)C)cc2)(C2CCCC2)C2CCCC2)cc1.[I-] [e′]	cationic>neutral>anionic			improved	performed well	much faster bleaching kinetics						
COS(=O)(=O)[O-].C[N+](C)(C)c1ccc([B-](c2ccc([N+](C)(C)C)cc2)(C2CCCC2)C2CCCC2)cc1 [f′]	cationic>neutral>anionic			significantly improved	performed well	significantly improved; also recorded: much faster bleaching kinetics	erased	~2%	no degradation	efficient bleaching; also recorded: efficiently bleach eosin; also recorded: effective bleaching; also recorded: mostly removed	518 nm shifts to 523 nm	clear change in color to non-fluorescent pink
